The values below come from patent US7109235B2, “Microtubule stabilizing compounds” (The Board of Trustees of the University Illinois, priority 2002, dated 2006).

In data set [1] the test system is MCF-7 breast cancer cells. As to the kind of experiment: cytotoxicity assay on MCF-7 breast cancer cells. The class given is cell-based, human. How it is done: The cytotoxic activity of trans-desoxylaulimalide (12a) was evaluated. An initial cytotoxicity study with desoxylaulimalide (12a) was conducted to compare compound (12a) to taxol and laulimalide for effects on the growth of human MCF-7 breast cancer cells. Cytotoxicity assays on MCF-7 were performed as described in P. Giannakakou et al., J. Biol. Chem., 272, 17118–17125 (1997). Consistent with its activity in a tubulin assembly assay, desoxylaulimalide (12a) was an inhibitor of cell growth. […] Thus, desoxylaulimalide (12a) is about 1/50 as active as laulimalide in the MCF-7 cells. This compares with the 340-fold lower activity in MDA-MB-435 breast cancer cells observed for isolaulimalide (9), which also lacks the epoxide moiety.

Another data set deals with tubulin. Put plainly: tubulin assembly assay / microtubule stabilization. The class given is biochemical.
The test system of data set [2] is MDA-MB-435 breast cancer cells. Conditions: cited from earlier work.
Another data set deals with KB cell line. Conditions: cited from earlier work.
For data set [3], the system named is SKVLB-1 multidrug resistant cell line. Conditions: multidrug resistant cell line SKVLB-1; read-out: IC50 against SKVLB-1; cited from earlier work.
The subject of data set [4] is P-glycoprotein-mediated MDR cell lines. Conditions: cited from earlier work.
Data set [5] concerns P388, A549, HT29, and MEL28 cell lines. The following applies: range over four cell lines; cited from earlier work.
In data set [6] the test system is MDA-MB-435 and SK-OV-3 cell lines. Conditions: drug-sensitive cell lines MDA-MB-435 and SK-OV-3; read-out: IC50, inhibition of cell proliferation; cited from earlier work.
[7] abbreviates: Homo sapiens, MCF7, read-out: IC50, inhibition of cell growth.

pIC50: −log10 of the molar value. In brackets after ≈: the same amount, converted by molar mass. Like-named read-outs stand apart in the source and are kept apart here.

As for `C=C1C[C@H](C)C[C@@H]2CC=C[C@@H](C/C=C\C(=O)O[C@H]([C@@H](O)/C=C/[C@@H]3CC(C)=CCO3)C/C=C/[C@@H](O)C1)O2` [12a, desoxylaulimalide], the pIC50 in data set [1] (setting [7]) is 6.44. Further, the “activity relative to laulimalide” value in data set [1] (MCF-7 cells) is on record as “about 1/50”. Also, in the data set on tubulin, the “effect on the tubulin assembly reaction” value is on record as “stimulates the tubulin assembly reaction”. Also, the “potency with respect to microtubule stabilization” value in the data set with tubulin (compared with laulimalide (2)) is “potency similar to laulimalide (2)”.

Take `C=C1CC(C)C[C@@H]2CC=C[C@@H](C/C=C\C(=O)O[C@@H]3C[C@H](O[C@@H]3/C=C/[C@H]3CC(C)=CCO3)[C@H](O)C(O)C1)O2` (stereo partly drawn) [isolaulimalide]: the “fold lower activity (compared with laulimalide)” value in data set [2] is 340 fold. Besides, the pIC50 is under 6.70 in the data set with KB cell line (read-out: IC50 against KB cell line) and 5.59 in data set [3].

Turning to `C=C1C[C@H](C)C[C@@H]2CC=C[C@@H](C/C=C\C(=O)O[C@H]([C@@H](O)/C=C/[C@@H]3CC(C)=CCO3)C[C@@H]3O[C@H]3[C@@H](O)C1)O2` [laulimalide], the “fold more potent than taxol” value in data set [4] is reported as 100 fold. For the same molecule, the “IC50, cytotoxicity against KB cell line” value in the data set with KB cell line was 0.015 µg/mL (≈ 0.0291 µM). The pIC50 in data set [1] (setting [7]) is 8.15; in data set [6], 7.92 to 8.30; in data set [3] it was 5.92. The “IC50, cytotoxicity against P388, A549, HT29, and MEL28 cell lines” value in data set [5] is 0.01 to 0.05 µg/mL.

Take `CC(=O)O[C@H]1C(=O)[C@@]2(C)[C@H]([C@H](OC(=O)c3ccccc3)[C@]3(O)C[C@H](OC(=O)[C@H](O)[C@@H](NC(=O)c4ccccc4)c4ccccc4)C(C)=C1C3(C)C)[C@]1(OC(C)=O)CO[C@@H]1C[C@@H]2O` [taxol]: the pIC50 in data set [1] (MCF7, human MCF-7 breast cancer cells, read-out: IC50, inhibition of cell growth) was 8.62; in data set [6], 5.70 to 6.00.
